From ChEMBL document CHEMBL3044664, “Synthesis of coumarin-based 1,3,4-oxadiazol-2ylthio-N-phenyl/benzothiazolyl acetamides as antimicrobial and antituberculosis agents” (2013)
Values after ≈ are worked out from the molar mass of the structure shown.

Columns and labels:
Format in all cases: functional
[1] = test system: Pseudomonas aeruginosa; assay: Antibacterial activity against Pseudomonas aeruginosa MTCC 741 assessed as growth inhibition by agar streak dilution method
[2] = test system: Proteus vulgaris; assay: Antibacterial activity against Proteus vulgaris MTCC 1771 assessed as growth inhibition by agar streak dilution method
[3] = test system: Candida albicans; assay: Antifungal activity against Candida albicans MTCC 183 assessed as growth inhibition by agar streak dilution method
[4] = test system: Mycobacterium tuberculosis; assay: Antitubercular activity against Mycobacterium tuberculosis H37Rv assessed as growth inhibition at MIC by Lowenstein-Jensen method
[5] = test system: Salmonella typhi; assay: Antibacterial activity against Salmonella enterica subsp. enterica serovar Typhi MTCC 733 assessed as growth inhibition by agar streak dilution method
[6] = test system: Aspergillus niger; assay: Antifungal activity against Aspergillus niger MTCC 282 assessed as growth inhibition by agar streak dilution method
[7] = test system: Shigella flexneri; assay: Antibacterial activity against Shigella flexneri MTCC 1457 assessed as growth inhibition by agar streak dilution method
[8] = test system: Staphylococcus aureus; assay: Antibacterial activity against Staphylococcus aureus MTCC 96 assessed as growth inhibition by agar streak dilution method
[9] = test system: Escherichia coli; assay: Antibacterial activity against Escherichia coli MTCC 739 assessed as growth inhibition by agar streak dilution method
[10] = test system: Aspergillus fumigatus; assay: Antifungal activity against Aspergillus fumigatus MTCC 343 assessed as growth inhibition by agar streak dilution method
[11] = test system: Aspergillus clavatus; assay: Antifungal activity against Aspergillus clavatus MTCC 1323 assessed as growth inhibition by agar streak dilution method
[12] = test system: Bacillus cereus; assay: Antibacterial activity against Bacillus cereus MTCC 430 assessed as growth inhibition by agar streak dilution method
[13] = test system: Mycobacterium tuberculosis; assay: Antitubercular activity against Mycobacterium tuberculosis H37Rv assessed as growth inhibition by Lowenstein-Jensen method
[14] = test system: Mycobacterium tuberculosis; assay: Antitubercular activity against Mycobacterium tuberculosis H37Rv assessed as growth inhibition by BACTEC MGIT method
[15] = test system: Klebsiella pneumoniae; assay: Antibacterial activity against Klebsiella pneumoniae MTCC 109 assessed as growth inhibition by agar streak dilution method

| SMILES | MIC [1] [µg/mL] | MIC [2] [µg/mL] | MIC [3] [µg/mL] | growth inhibition (GI) [4] [%] | MIC [5] [µg/mL] | MIC [6] [µg/mL] | MIC [7] [µg/mL] | MIC [8] [µg/mL] | MIC [9] [µg/mL] | MIC [10] [µg/mL] | MIC [11] [µg/mL] | MIC [12] [µg/mL] | MIC [13] [µg/mL] | MIC [14] [µg/mL] | MIC [15] [µg/mL] |
| --- | --- | --- | --- | --- | --- | --- | --- | --- | --- | --- | --- | --- | --- | --- | --- |
| N#Cc1ccc(NC(=O)CSc2nnc(-c3cc4ccccc4oc3=O)o2)cc1 | 100 (≈ 247 µM) | 100 (≈ 247 µM) | 50 (≈ 124 µM) | 95 | 100 (≈ 247 µM) | > 100 | > 100 | 6.25 (≈ 15.5 µM) | 50 (≈ 124 µM) | > 100 | > 100 | 100 (≈ 247 µM) | 200 (≈ 495 µM) | > 6.25 | 50 (≈ 124 µM) |
| O=C(CSc1nnc(-c2cc3ccccc3oc2=O)o1)Nc1ccc([N+](=O)[O-])cc1 | > 100 | 25 (≈ 58.9 µM) | 12.5 (≈ 29.5 µM) | 94 | 100 (≈ 236 µM) | 100 (≈ 236 µM) | 100 (≈ 236 µM) | 100 (≈ 236 µM) | 50 (≈ 118 µM) | 50 (≈ 118 µM) | 100 (≈ 236 µM) | 100 (≈ 236 µM) | 500 (≈ 1180 µM) | > 6.25 | 100 (≈ 236 µM) |
| O=C(CSc1nnc(-c2cc3ccccc3oc2=O)o1)Nc1nc2ccc(F)cc2s1 | 50 (≈ 110 µM) | 100 (≈ 220 µM) | 50 (≈ 110 µM) | 98 | 50 (≈ 110 µM) | 12.5 (≈ 27.5 µM) | 25 (≈ 55 µM) | 12.5 (≈ 27.5 µM) | 50 (≈ 110 µM) | 25 (≈ 55 µM) | 50 (≈ 110 µM) | 12.5 (≈ 27.5 µM) | 50 (≈ 110 µM) | > 6.25 | 100 (≈ 220 µM) |
| O=C(CSc1nnc(-c2cc3ccccc3oc2=O)o1)Nc1nc2ccccc2s1 | 50 (≈ 115 µM) | 100 (≈ 229 µM) | > 100 | 95 | 100 (≈ 229 µM) | > 100 | 100 (≈ 229 µM) | 100 (≈ 229 µM) | > 100 | > 100 | > 100 | 100 (≈ 229 µM) | 500 (≈ 1150 µM) | > 6.25 | > 100 |
| O=C(CSc1nnc(-c2cc3ccccc3oc2=O)o1)Nc1ccc(I)cc1 | 100 (≈ 198 µM) | 50 (≈ 99 µM) | 100 (≈ 198 µM) | 99 | > 100 | 100 (≈ 198 µM) | 100 (≈ 198 µM) | 100 (≈ 198 µM) | 100 (≈ 198 µM) | 100 (≈ 198 µM) | 100 (≈ 198 µM) | 100 (≈ 198 µM) | 12.5 (≈ 24.7 µM) | > 6.25 | 100 (≈ 198 µM) |
| Cc1ccc2nc(NC(=O)CSc3nnc(-c4cc5ccccc5oc4=O)o3)sc2c1 | 100 (≈ 222 µM) | 100 (≈ 222 µM) | 100 (≈ 222 µM) | 95 | 100 (≈ 222 µM) | > 100 | > 100 | 100 (≈ 222 µM) | > 100 | > 100 | 100 (≈ 222 µM) | 100 (≈ 222 µM) | 200 (≈ 444 µM) | > 6.25 | 100 (≈ 222 µM) |
| Cc1ccc(NC(=O)CSc2nnc(-c3cc4ccccc4oc3=O)o2)cc1 | > 100 | > 100 | > 100 | 94 | 100 (≈ 254 µM) | 100 (≈ 254 µM) | > 100 | 100 (≈ 254 µM) | > 100 | > 100 | 100 (≈ 254 µM) | 50 (≈ 127 µM) | 500 (≈ 1270 µM) | > 6.25 | > 100 |
| O=C(CSc1nnc(-c2cc3ccccc3oc2=O)o1)Nc1ccc(F)cc1 | 100 (≈ 252 µM) | 100 (≈ 252 µM) | 25 (≈ 62.9 µM) | 99 | 50 (≈ 126 µM) | 50 (≈ 126 µM) | 50 (≈ 126 µM) | 12.5 (≈ 31.5 µM) | 50 (≈ 126 µM) | 50 (≈ 126 µM) | 100 (≈ 252 µM) | 50 (≈ 126 µM) | 25 (≈ 62.9 µM) | > 6.25 | 100 (≈ 252 µM) |
| COc1ccc(NC(=O)CSc2nnc(-c3cc4ccccc4oc3=O)o2)cc1 | 25 (≈ 61.1 µM) | 100 (≈ 244 µM) | 100 (≈ 244 µM) | 97 | 25 (≈ 61.1 µM) | 100 (≈ 244 µM) | 100 (≈ 244 µM) | 6.25 (≈ 15.3 µM) | 50 (≈ 122 µM) | 100 (≈ 244 µM) | 50 (≈ 122 µM) | 100 (≈ 244 µM) | 50 (≈ 122 µM) | > 6.25 | 100 (≈ 244 µM) |
| O=C(O)c1cn(C2CC2)c2cc(N3CCNCC3)c(F)cc2c1=O [CIPROFLOXACIN] | 0.78 (≈ 2.35 µM) | 0.39 (≈ 1.18 µM) |  |  | 0.39 (≈ 1.18 µM) |  | 1.56 (≈ 4.71 µM) | 1.56 (≈ 4.71 µM) |  |  |  | 0.39 (≈ 1.18 µM) |  |  | 0.78 (≈ 2.35 µM) |
